This note sets out measurements from patent US20230295152A1 (SENDA BIOSCIENCES, INC., priority 2019, published 2023).

Where only a bound is given, the exact number is not on record here.

What all share (format): in vitro ADME
Data set [1] can be described thus: Plasma Protein Binding, monkey. Particulars: read-out: Plasma Protein Binding PPB (mon) % (converted). As to the method: (§1) Example 10: Plasma Protein Binding Determination with Ultracentrifugation Method
(§2) The frozen plasma (stored at −80° C.) was thawed in a 37° C. water bath, followed by centrifugation at 3,220 g for 10 minutes to remove clots. The supernatant was removed into a new tube as the spun plasma. The spun plasma was pre-warmed in a 37° C. water bath for 10 minutes. The stock solutions of test compounds were diluted to 200 μM in DMSO, and then spiked into the plasma. Duplicate samples were prepared. The final concentration of compound was 1.0 μM. The final concentration of organic solvent was 0.5%. Warfarin was used as positive control in the assay. 1.0 mL of the spiked plasma was transferred to a new balance ultracentrifuge tube. Samples were incubated at 37° C., 5% CO2 for 30 minutes. After incubation, the balance ultracentrifuge tubes were centrifuged at 600,000 g for 5.5 hours at 37° C. […]
(§3) Data Analysis: All calculations were carried out using Microsoft Excel. The concentrations of test compound in plasma samples and post-ultracentrifugation plasma was determined from peak areas. The percentages of test compound bound was calculated as follows: […]

Data set [2] is described as follows: Suspension Monkey heps ClInt. The note with it: @1 and 0.1 mM. The text has this:
Compound Nos. 9 and 46 have the following in vitro DMPK profiles.

Data set [3] in a line: Plasma Protein Binding, dog. Particulars: read-out: Plasma Protein Binding PPB (d) % (converted). As to the method: as §1, §2, §3
The test system of another data set is CYP. The data set can be described thus: CYP Inhibition (in vitro DMPK profile, Table 52). As to the method: Example 11: CYP Inhibition Assay
Stock solutions of test compounds were prepared in DMSO at the concentrations of 10 mM. Stock solution was diluted to 2 mM with acetonitrile. The final concentration of test compounds was 10 μM. For the stock solution preparation, if the positive control could not be well dissolved in the mixture of DMSO and acetonitrile (1:4) at the highest concentration, another mixture of acetonitrile and DMSO, the mixture of acetonitrile and H2O or DMSO will be used to dissolve the compound.
Data Analysis: The automatic peak integration areas are checked for all the samples. The Analyte Peak Area and Internal Standard Peak Area are exported into excel spreadsheet. The inhibition of each P450 enzyme in human liver microsomes is measured as the percentage decrease in the activity of marker metabolite formation compared to non-inhibited controls (=100% activity).

Consider `C[C@@H](CO)n1cnc2c(-c3cccnc3)nc(-c3ccc(C(F)(F)F)cn3)cc2c1=O` [Compound 46, (S)-3-(1-hydroxypropan-2-yl)-8-(pyridin-3-yl)-6-(5-(trifluoromethyl)pyridin-2-yl)pyrido[3,4-d]pyrimidin-4(3H)-one], for which the fraction unbound at 5.5 h, 1 μM is 0.113 in data set [1] and 0.11 in data set [3]. In data set [2], the “Suspension Monkey heps ClInt (% Qh)” value was <24 (@1 and % Qh. The “CYP Inhibition” value in the data set with CYP is “Negative”.

With `CC(C)(O)Cn1cnc2c(-c3cccnc3)nc(-c3ccc(C(F)(F)F)nc3)cc2c1=O` [Compound 9], the fraction unbound at 5.5 h, 1 μM was 0.149 in data set [1] and 0.124 in data set [3]. Also, in data set [2], the “Suspension Monkey heps ClInt (% Qh)” value was <24 (@1 and % Qh. Moreover, the “CYP Inhibition” value in the data set on CYP was “Negative”.
